Test results published in US20140134690A1, “MICROBES AND METHODS FOR PRODUCING 1-PROPANOL” (University of Georgia Research Foundation, Inc., priority 2012, published 2014).

What was measured:
Assay in all cases: Methylglyoxal synthase assay
[1] = molecular target: T1, Thermus thermophilus HB27 methylglyoxal synthase (mgsA), wild type (Thermus thermophilus, UniProt Q72HP3); format: biochemical, T. thermophilus; details: substrate dihydroxyacetone phosphate 0.15-1.5 mM; crude extract; pH 7.0; 30° C.
T1 sequence (Q72HP3 1-126): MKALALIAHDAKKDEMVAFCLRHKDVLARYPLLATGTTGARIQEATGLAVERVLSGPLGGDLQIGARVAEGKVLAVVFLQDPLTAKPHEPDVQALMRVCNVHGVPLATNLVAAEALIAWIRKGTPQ
From the text: (§1) 1,2-Propanediol pathway branches from glycolysis and competes for the intermediate dihydroxyacetone phosphate, with the glycolytic pathway. […] We amplified the mgsA genes from the microorganisms: C. acetobutylicum (ATCC#824), B. subtilis 168, C. difficile R20291, E. coli MG1655, T. thermophilus HB27, K. pneumoniae MGH78578, P. fluorescens Pf-5, and R. eutropha H16 respectively. These genes were cloned and expressed in wild type E. coli BW25113 using eight plasmids pRJ1-pRJ8. Each gene was under the control of the IPTG-inducible pLlacO1 promoter. Using dihydroxyacetone-phosphate as the substrate, we successfully detected the functional expression of all mgsA genes in vitro, where the specific activities varied from 0.0052 U/mg to 0.1242 U/mg (Table 1). […] Without the over-expression of mgsA gene, we also detected the native expression of E. coli mgsA, which gave a specific activity of only 0.0008 U/mg, much lower than that of any over-expression.
(§2) Using the primers listed in Table 5, the mgsA genes were PCR amplified from the genomic DNA of C. acetobutylicum (ATCC824), B. subtilis 168, Clostridium difficile R20291, E. coli MG1655, Thermus thermophilus HB27, K. pneumoniae MGH78578, Pseudomonas fluorescens Pf-5, and Ralstonia eutropha H16 respectively. […]
(§3) The assay was carried out using a two-step procedure. […] The samples were diluted 10 times before measuring the absorbance at 550 nm.

[2] = molecular target: T2, Bacillus subtilis 168 methylglyoxal synthase (mgsA), wild type (Bacillus subtilis, UniProt P42980); format: biochemical, B. subtilis
T2 sequence (P42980 1-137): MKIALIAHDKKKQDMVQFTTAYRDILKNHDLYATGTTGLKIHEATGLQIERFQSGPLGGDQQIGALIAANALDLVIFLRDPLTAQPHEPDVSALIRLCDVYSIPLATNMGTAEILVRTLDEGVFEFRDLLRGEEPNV
From the text: as §1, §2, §3

[3] = molecular target: E. coli MG1655 methylglyoxal synthase (mgsA), wild type (Escherichia coli, UniProt P0A731); format: biochemical; details: substrate dihydroxyacetone phosphate 0.15-1.5 mM; crude extract; pH 7.0; 30° C.
Chain of E. coli MG1655 methylglyoxal synthase (mgsA), wild type (P0A731 whole entry): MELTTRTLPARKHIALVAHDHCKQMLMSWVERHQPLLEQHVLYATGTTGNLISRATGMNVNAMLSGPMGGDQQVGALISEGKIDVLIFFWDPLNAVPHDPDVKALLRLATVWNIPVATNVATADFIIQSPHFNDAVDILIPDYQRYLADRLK
From the text: as §1, §2, §3

[4] = molecular target: Clostridium difficile R20291 methylglyoxal synthase (mgsA), wild type (Clostridioides difficile, UniProt A0A9R0BJ64); format: biochemical, C. difficile; details: substrate dihydroxyacetone phosphate 0.15-1.5 mM; crude extract; pH 7.0; 30° C.
Chain of Clostridium difficile R20291 methylglyoxal synthase (mgsA), wild type (A0A9R0BJ64 entry or part of it): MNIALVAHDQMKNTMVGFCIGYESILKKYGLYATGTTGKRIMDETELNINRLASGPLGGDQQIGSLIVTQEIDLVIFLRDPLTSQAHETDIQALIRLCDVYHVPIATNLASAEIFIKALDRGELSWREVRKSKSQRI
From the text: as §1, §2, §3

[5] = molecular target: T3, Clostridium acetobutylicum (ATCC 824) methylglyoxal synthase (mgsA), wild type (Clostridium acetobutylicum, UniProt Q97IN6); format: biochemical, C. acetobutylicum; details: substrate dihydroxyacetone phosphate 0.15-1.5 mM; crude extract; pH 7.0; 30° C.
T3 sequence (Q97IN6 1-145): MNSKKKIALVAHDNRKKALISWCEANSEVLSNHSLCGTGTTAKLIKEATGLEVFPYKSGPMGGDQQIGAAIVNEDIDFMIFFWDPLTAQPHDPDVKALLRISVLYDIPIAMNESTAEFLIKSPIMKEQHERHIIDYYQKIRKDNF
From the text: as §1, §2, §3

[6] = molecular target: T4, Pseudomonas fluorescens Pf-5 methylglyoxal synthase (mgsA), wild type (Pseudomonas protegens, UniProt Q4K7S5); format: biochemical, P. fluorescens; details: substrate dihydroxyacetone phosphate 0.15-1.5 mM; crude extract; pH 7.0; 30° C.
T4 sequence (Q4K7S5 1-154): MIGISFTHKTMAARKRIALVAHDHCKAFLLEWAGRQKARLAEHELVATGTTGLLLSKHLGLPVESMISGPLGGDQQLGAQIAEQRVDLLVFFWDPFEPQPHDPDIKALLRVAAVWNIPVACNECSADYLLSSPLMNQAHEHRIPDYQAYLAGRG
From the text: as §1, §2, §3

[7] = molecular target: T5, Ralstonia eutropha H16 methylglyoxal synthase (mgsA), wild type (Cupriavidus necator, UniProt Q0KD43); format: biochemical, R. eutropha; details: substrate dihydroxyacetone phosphate 0.15-1.5 mM; crude extract; pH 7.0; 30° C.
T5 sequence (Q0KD43 1-132): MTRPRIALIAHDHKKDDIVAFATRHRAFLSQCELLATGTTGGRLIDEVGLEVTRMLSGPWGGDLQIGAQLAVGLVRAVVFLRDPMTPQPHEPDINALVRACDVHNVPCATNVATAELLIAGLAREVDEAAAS
From the text: as §1, §2, §3

[8] = molecular target: Klebsiella pneumoniae MGH78578 methylglyoxal synthase (mgsA), wild type (Klebsiella pneumoniae, UniProt A6T757); format: biochemical, K. pneumoniae; details: substrate dihydroxyacetone phosphate 0.15-1.5 mM; crude extract; pH 7.0; 30° C.
Chain of Klebsiella pneumoniae MGH78578 methylglyoxal synthase (mgsA), wild type (A6T757 6-157): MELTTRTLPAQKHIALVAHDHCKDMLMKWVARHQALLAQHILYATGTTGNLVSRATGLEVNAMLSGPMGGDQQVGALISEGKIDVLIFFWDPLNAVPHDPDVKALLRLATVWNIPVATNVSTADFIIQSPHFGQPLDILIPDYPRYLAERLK
From the text: as §1, §2, §3

O=C(CO)COP(=O)(O)O [dihydroxyacetone phosphate]
Specific Activity/Km [1]: 0.0076 U/mg/mM | Specific Activity/Km ([2]; substrate dihydroxyacetone phosphate 0.15-1.5 mM, crude extract, pH 7.0, 30° C.): 0.1186 U/mg/mM | ratio of specific activity/Km ([2]; substrate dihydroxyacetone-phosphate): 0.1186 | Specific Activity/Km [3]: 0.0876 U/mg/mM | Specific Activity/Km [4]: 0.0415 U/mg/mM | Specific Activity/Km [5]: 0.0697 U/mg/mM | Specific Activity/Km [6]: 0.0085 U/mg/mM | Specific Activity/Km [7]: 0.0074 U/mg/mM | Specific Activity/Km [8]: 0.0058 U/mg/mM
